According to PMC7923228, “Phosphoinositide 3-Kinase (PI3K) Reactive Oxygen Species (ROS)-Activated Prodrug in Combination with Anthracycline Impairs PI3K Signaling, Increases DNA Damage Response and Reduces Breast Cancer Cell Growth” (International Journal of Molecular Sciences, 2021):
Where “and” joins values, the source holds several entries; their conditions need not be identical. Equal values may be shown once. Read-outs that look alike come from different tables or passages of the source.

Legend:
[1] = system: MDA-MB-231, MDA-MB-361 and MDA-MB-453 cells; test: MTT cell viability assay, combination treatments, 72 h; format: cell-based, Human
Procedure: (§1) Growth kinetics of fibroblasts, MCF10A, MDA-MB-231, MDA-MB-361 and MDA-MB-453 cells was determined by the 4,5-dimethylthiazol-2-yl)-2,5-diphenyltetrazolium bromide (MTT) assay. Briefly, 2 × 10^4 cells/well were seeded in 96 well plates in triplicate. […] MDA-MB-231 cells were treated with 500–5000 nM, MDA-MB-361 with 50–450 nM and MDA-MB-453 with 100–4000 nM of doxorubicin for 72 h. […] MDA-MB-231 cells were treated with 50–50,000 pM docetaxel. MDA-MB-361 cells were treated with 10–90 nM of docetaxel. MDA-MB-453 cells were subjected 50–10,000 pM of docetaxel. The cell proliferation was analyzed after 72 h and represented as mean of triplicate values relative to DMSO control.

[2] = system: MCF10A, MDA-MB-231, MDA-MB-361 and MDA-MB-453 cells; test: Intracellular ROS, DCFDA assay; format: cell-based; details: 125 nM, 30 min
Procedure: The cells were resuspended in dichlorodihydrofluorescein diacetate (DCFH-DA) for 30 min […] using the CellQuest software v4.0.1 (Becton Dickinson and Company, Franklin Lakes, NJ, USA) to measure the ROS levels. The DCFH-DA levels were measured using a SPECTRAmax PLUS Microplate Spectrophotometer Plate Reader (Molecular Devices Corporation).

MDA-MB-453 cells [3] = system: MDA-MB-453 cells
Procedure: as §1

MDA-MB-361 cells [4] = test: cells; details: Homo sapiens, MDA-MB-361, 72 h
Procedure: as §1

MDA-MB-231 cells [5] = test: MTT cell viability assay, 72 h
Procedure: as §1

MDA-MB-361 cells [6] = system: MDA-MB-361 cells
Procedure: as §1

[7] = system: p-AKT, p-P53, p-CHK1, p-CHK2 in MDA-MB-231, MDA-MB-361 and MDA-MB-453 cells; format: cell-based, Human; details: for phosphorylation of AKT at Thr308: data not shown; for phosphorylation of CHK2 at T68: most notably in MDA-MB-361 and MDA-MB-453 versus vehicle control, 24 h
Source text: Cells were lysed in RIPA buffer (Thermo Fisher Scientific, Waltham, MA, USA, Cat#BP-115) supplemented with protease and phosphatase inhibitors (Thermo Fisher Scientific, Cat#88669). […] Peroxidase-conjugated secondary antibodies (Santa Cruz Biotechnology) were used and protein signals were detected using Pierce ECL western blotting substrate (Thermo Fisher Scientific, Cat# 32106).

MDA-MB-453 cells [8] = test: MTT cell viability assay, 72 h
Procedure: as §1

MDA-MB-231 cells [9] = system: MDA-MB-231 cells
Procedure: as §1

PI3Kɣ = system: PI3Kɣ; parameters: method as in PMID 19584227; details: read-out: IC50 against PI3Kɣ; cited from earlier work
MCF10A cells = test: cells; format: cell-based; details: for IC50: 72 h MTT
Procedure: as §1

NH fibroblasts = test: cells; format: cell-based
[10] = system: PIK3CA-mutated, hormone receptor (HR)-positive, HER2-negative advanced breast cancer; parameters: method as in PMID 31091374; details: cited from earlier work

Compound: CC(=O)O[C@@]12CO[C@@H]1C[C@H](O)[C@@]1(C)C(=O)[C@H](O)C3=C(C)[C@@H](OC(=O)[C@H](O)[C@@H](NC(=O)OC(C)(C)C)c4ccccc4)C[C@@](O)([C@@H](OC(=O)c4ccccc4)[C@H]21)C3(C)C [docetaxel]
- suppression of breast cancer cell growth in combination with RIDR-PI-103 ([1]; docetaxel + 10, 15 or 30 µM RIDR-PI-103, 72 h): less effective

Compound: COc1cccc2c1C(=O)c1c(O)c3c(c(O)c1C2=O)C[C@@](O)(C(=O)CO)C[C@@H]3O[C@H]1C[C@H](N)[C@H](O)[C@H](C)O1 [Doxorubicin]
- ROS levels [2]: induced ROS
- IC50 (MDA-MB-453 cells [3]): 530 nM and 516 nM and 478 nM
- IC50 (MDA-MB-361 cells [4]; read-out: IC50 (MDA-MB-361)): 116 nM
- IC50 (MDA-MB-231 cells [5]; Homo sapiens, MDA-MB-231, 72 h, read-out: IC50 (MDA-MB-231)): 405 nM
- IC50 (MDA-MB-361 cells [6]): 111 nM and 110 nM and 73.2 nM
- p53 phosphorylation at Ser15 [7]: didn’t observe p53 post-translational modification activation
- phosphorylation of AKT at Thr308 [7]: no effect
- phosphorylation of CHK2 at T68 [7]: increased phosphorylation
- IC50 (MDA-MB-453 cells [8]; Homo sapiens, MDA-MB-453, 72 h, read-out: IC50 (MDA-MB-453)): 578 nM
- IC50 (MDA-MB-231 cells [9]): 185 nM and 146 nM

Compound: Oc1cccc(-c2nc(N3CCOCC3)c3oc4ncccc4c3n2)c1 [PI-103, 3-(4-morpholinopyrido[3′,2′:4,5]furo[3,2-d]pyrimidin-2-yl)phenol]
- IC50 (MDA-MB-361 cells [4]): 1700 nM
- IC50 (PI3Kɣ): 15 nM
- IC50 (MCF10A cells; Homo sapiens, MCF-10A): 3800 nM
- IC50 (NH fibroblasts; Fibroblast, fibroblasts, 72 h MTT): 3900 nM
- IC50 (MDA-MB-453 cells [8]; Homo sapiens, MDA-MB-453, 72 h): 820 nM

Compound: CC(=O)N[C@@H](CS)C(=O)O [NAC, N-Acetyl Cysteine]
- rescue of antiproliferative effects of RIDR-PI-103 and doxorubicin (MDA-MB-231 cells [5]; MDA-MB-231, 10 mM NAC, 125 nM doxorubicin ± 30 µM RIDR-PI-103, 24 hour): rescued the antiproliferative effects

Compound: Cc1nc(NC(=O)N2CCC[C@H]2C(N)=O)sc1-c1ccnc(C(C)(C)C(F)(F)F)c1 [alpelisib, Alpelisib]
- improvement of progression-free survival compared with fulvestrant alone ([10]; alpelisib in combination with fulvestrant, patients who had received endocrine therapy previously): about 5 months
- adverse events ([10]; patients receiving alpelisib): high risk of hyperglycemia-related adverse events

Compound: ROS-induced drug release 3-(4-morpholinopyrido[3′,2′:4,5]furo[3,2-d]pyrimidin-2-yl)phenol [RIDR-PI-103]
- effect on cytotoxicity of doxorubicin ([1]; 10, 15 and 30 µM RIDR-PI-103, MDA-MB-231, MDA-MB-361 and MDA-MB-453): enhances the cytotoxicity
- growth inhibition ([1]; three breast cancer cell lines, 50 µM or greater, 72 h): showed growth inhibition
- response to treatment (growth) (MCF10A cells; 50 µM or greater, 72 h): did not respond appreciably
- IC50 (MCF10A cells): 78600 nM
- IC50 (MDA-MB-231 cells [5]; MDA-MB-231, 72 h MTT): 47300 nM
- response to treatment (growth) (NH fibroblasts; normal fibroblasts, 50 µM or greater, 72 h): did not respond appreciably
- IC50 (MDA-MB-361 cells [6]; MDA-MB-361, 72 h MTT): 43000 nM
- phosphorylation of AKT at Thr308 [7]: no effect
- phosphorylation of CHK2 at T68 [7]: increased phosphorylation
- IC50 (MDA-MB-453 cells [8]; MDA-MB-453, 72 h MTT): 49000 nM and 49100 nM
